# In patent publication US20100009853A1, “PARASITIC PLANT CONTROL AGENT AND USE THEREOF” (Nihon Nohyaku Co., Ltd, priority 2006, published 2010):
# Where “and” joins values, the source holds several entries; their conditions need not be identical. Identical values can stand only once.
# Legend:
# Assay type in all cases: in vivo
# Orobanche minor [1] = assay: Test Example 4: seed soaking treatment, parasitism of Orobanche minor on red clover; settings: for S4 bud formation per root / Average parasitism frequency per root: seed soaking 24 h; for S4 bud formation per root: untreated plot 0.45; for Average parasitism frequency per root: untreated plot 2.08; for S4 bud formation / total parasitism frequency of Orobanche minor: seed soaking, all treatment plots (200 and 20 ppm)
# Procedure: (§1) Red clover seeds were soaked for 24 hours in agent liquid which had been prepared into a predetermined concentration. The red clover seeds were sowed in a pot packed with soil (1/10000 ares) and Orobanche minor seeds were sowed around the red clover seeds, followed by cultivation in a greenhouse. Growth of the red clover and the parasitism frequency and growth of Orobanche minor were observed by visual observation.
# Orobanche minor [2] = assay: Test Example 5: soil irrigation treatment, parasitism of Orobanche minor on red clover; settings: for Average parasitism frequency per root: soil irrigation 20 ml/pot at 10, 20 and 30 days after sowing, untreated plot 2.08; for S4 bud formation per root / parasitism frequency / S4 bud formation: soil irrigation; for S4 bud formation per root: untreated plot 0.45; for parasitism frequency: 2000 and 200 ppm; for S4 bud formation: all treatment plots
# Procedure: (§2) The red clover seeds were sowed in a pot packed with soil (1/10000 ares) and Orobanche minor seeds were sowed around the red clover seeds, followed by cultivation in a greenhouse. After 10, 20 and 30 days of the sowing, agent liquid prepared into a predetermined concentration was irrigation-treated at a ratio of 20 ml/pot.
# Orobanche minor [3] = assay: Test Example 6: foliage application treatment, parasitism of Orobanche minor on red clover; settings: for Average parasitism frequency per root: foliage application at 10, 20 and 30 days after sowing, untreated plot 2.08; for S4 bud formation per root / parasitism frequency decreasing tendency / S4 bud formation / parasitism frequency: foliage application; for S4 bud formation per root: untreated plot 0.45; for parasitism frequency decreasing tendency: 200 ppm or less; for S4 bud formation: 2000 and 200 ppm
# From the text: (§3) The red clover seeds were sowed in a pot packed with soil (1/10000 ares) and Orobanche minor seeds were sowed around the red clover seeds, followed by cultivation in a greenhouse. After 10, 20 and 30 days of the sowing, sufficient amount of agent liquid diluted to a predetermined concentration with water was applied to the foliage using an atomizer, from single- to double-leaf stage of the red clover.
# red clover [4] = assay: Test Example 5: phytotoxicity of soil irrigation treatment on red clover; settings: symptom growth inhibition
# Procedure: as §2
# Orobanche minor [5] = assay: Test Example 1: seed soaking treatment, parasitism of Orobanche minor on red clover; settings: for Average parasitism frequency per root / S4 bud formation per root: seed soaking 24 h; for Average parasitism frequency per root: red clover host, untreated plot 2.55; for S4 bud formation per root: untreated plot 0.52
# Procedure: as §1, with “observation. The growth of Orobanche minor was evaluated based on the following four steps. [table]” for “observation.”
# Orobanche minor [6] = assay: Test Example 2: soil irrigation treatment, parasitism of Orobanche minor on red clover; settings: for Average parasitism frequency per root: soil irrigation 20 ml/pot at 10, 20 and 30 days after sowing, untreated plot 2.55; for S4 bud formation per root: untreated plot 0.52
# Procedure: as §2, with “sowing, an” for “sowing,”
# Orobanche minor [7] = assay: Test Example 3: foliage application treatment, parasitism of Orobanche minor on red clover; settings: for Average parasitism frequency per root: foliage application at 10, 20 and 30 days after sowing, untreated plot 2.55; for S4 bud formation per root: untreated plot 0.52
# From the text: as §3
# red clover [8] = assay: Test Example 3: effect of foliage application on the host red clover
# From the text: as §3
# parasitic plant = assay: Parasitic plant controlling activity (general statement); settings: general statement in the description
# crop plants = assay: Phytotoxicity for crop plants (general statement); settings: general statement in the description
compound,measurement,setting,value
"N#Cc1ccccc1NC(=O)c1snc(Cl)c1Cl [CICA, N-(2-cyanophenyl)-3,4-dichloroisothiazole-5-carboxamide]",S4 bud formation per root,Orobanche minor [1]; 20 ppm,0.11 per root
same,Average parasitism frequency per root,Orobanche minor [1]; 20 ppm,1.36 per root
same,S4 bud formation per root,Orobanche minor [1]; 200 ppm,0.09 per root
same,Average parasitism frequency per root,Orobanche minor [1]; 200 ppm,1.15 per root
same,S4 bud formation,Orobanche minor [1],decreasing tendency
same,total parasitism frequency of Orobanche minor,Orobanche minor [1],decreasing tendency
same,Average parasitism frequency per root,Orobanche minor [2]; 20 ppm,1.99 per root
same,Average parasitism frequency per root,Orobanche minor [2]; 200 ppm,1.39 per root
same,Average parasitism frequency per root,Orobanche minor [2]; 2000 ppm,0.15 per root
same,S4 bud formation per root,Orobanche minor [2]; 20 ppm,0.10 per root
same,S4 bud formation per root,Orobanche minor [2]; 200 ppm,0.09 per root
same,parasitism frequency,Orobanche minor [2],reducing tendency
same,S4 bud formation per root,Orobanche minor [2]; 2000 ppm,0.04 per root
same,S4 bud formation,Orobanche minor [2],reduced
same,Average parasitism frequency per root,Orobanche minor [3]; 20 ppm,3.01 per root
same,Average parasitism frequency per root,Orobanche minor [3]; 200 ppm,2.05 per root
same,Average parasitism frequency per root,Orobanche minor [3]; 2000 ppm,0.44 per root
same,S4 bud formation per root,Orobanche minor [3]; 20 ppm,0.60 per root
same,parasitism frequency decreasing tendency,Orobanche minor [3],unclear
same,S4 bud formation per root,Orobanche minor [3]; 200 ppm,0.25 per root
same,S4 bud formation,Orobanche minor [3],decreasing tendency
same,parasitism frequency,Orobanche minor [3]; 2000 ppm,decreasing tendency
same,S4 bud formation per root,Orobanche minor [3]; 2000 ppm,0.03 per root
same,phytotoxicity,red clover [4]; 2000 ppm,weak
"O=C(O)c1ccnc(Cl)c1 [INA, 2-chloroisonicotinic acid]",reduction of the S4 (bud formation),Orobanche minor [5]; seed soaking,large
same,Average parasitism frequency per root,Orobanche minor [5]; 20 ppm,2.28 per root
same,S4 bud formation per root,Orobanche minor [5]; 20 ppm,0.22 per root
same,Average parasitism frequency per root,Orobanche minor [5]; 200 ppm,1.03 per root
same,S4 bud formation per root,Orobanche minor [5]; 200 ppm,0.02 per root
same,number of total parasitized cases of Orobanche minor,"Orobanche minor [5]; seed soaking, 200 ppm",reducing tendency
same,Average parasitism frequency per root,Orobanche minor [6]; 2 ppm,1.49 per root
same,Average parasitism frequency per root,Orobanche minor [6]; 20 ppm,1.03 per root
same,S4 bud formation per root,"Orobanche minor [6]; soil irrigation, 2 ppm",0.07 per root
same,S4 bud formation per root,"Orobanche minor [6]; soil irrigation, 20 ppm",0.08 per root
same,parasitism frequency,"Orobanche minor [6]; soil irrigation, 200 ppm",slightly lowered
same,Average parasitism frequency per root,Orobanche minor [7]; 2 ppm,0.99 per root
same,Average parasitism frequency per root,Orobanche minor [7]; 20 ppm,0.94 per root
same,S4 bud formation per root,"Orobanche minor [7]; foliage application, 2 ppm",0.05 per root
same,S4 bud formation per root,"Orobanche minor [7]; foliage application, 20 ppm",0.03 per root
same,parasitism frequency,"Orobanche minor [7]; foliage application, concentration not given",lowered
same,growth of the host,red clover [8]; 200 ppm treatment plot,inhibited
"C=CCOC1=NS(=O)(=O)c2ccccc21 [PBZ, probenazole]",Average parasitism frequency per root,Orobanche minor [5]; 20 ppm,1.50 per root
same,S4 bud formation per root,Orobanche minor [5]; 20 ppm,0.28 per root
same,Average parasitism frequency per root,Orobanche minor [5]; 200 ppm,1.59 per root
same,S4 bud formation per root,Orobanche minor [5]; 200 ppm,0.29 per root
same,Average parasitism frequency per root,Orobanche minor [6]; 2 ppm,2.47 per root
same,Average parasitism frequency per root,Orobanche minor [6]; 20 ppm,3.17 per root
same,Average parasitism frequency per root,Orobanche minor [6]; 200 ppm,1.52 per root
same,S4 bud formation per root,"Orobanche minor [6]; soil irrigation, 2 ppm",0.13 per root
same,S4 bud formation per root,"Orobanche minor [6]; soil irrigation, 20 ppm",0.08 per root
same,S4 bud formation per root,"Orobanche minor [6]; soil irrigation, 200 ppm",0.08 per root
same,Average parasitism frequency per root,Orobanche minor [7]; 20 ppm,2.24 per root
same,Average parasitism frequency per root,Orobanche minor [7]; 200 ppm,1.75 per root
same,S4 bud formation per root,"Orobanche minor [7]; foliage application, 20 ppm",0.16 per root
same,S4 bud formation per root,"Orobanche minor [7]; foliage application, 200 ppm",0.18 per root
"O=C(O)c1ccccc1O [SA, salicylic acid]",Average parasitism frequency per root,Orobanche minor [5]; 20 ppm,2.09 per root
same,S4 bud formation per root,Orobanche minor [5]; 20 ppm,0.38 per root
same,Average parasitism frequency per root,Orobanche minor [5]; 200 ppm,2.17 per root
same,S4 bud formation per root,Orobanche minor [5]; 200 ppm,0.44 per root
same,Average parasitism frequency per root,Orobanche minor [6]; 2 ppm,1.75 per root
same,Average parasitism frequency per root,Orobanche minor [6]; 20 ppm,2.47 per root
same,S4 bud formation per root,"Orobanche minor [6]; soil irrigation, 2 ppm",0.06 per root
same,S4 bud formation per root,"Orobanche minor [6]; soil irrigation, 20 ppm",0.03 per root
same,Average parasitism frequency per root,Orobanche minor [7]; 2 ppm,1.91 per root
same,S4 bud formation per root,"Orobanche minor [7]; foliage application, 2 ppm",0.17 per root
same,S4 bud formation per root,"Orobanche minor [7]; foliage application, 20 ppm",0.38 per root
same,parasitism frequency,"Orobanche minor [7]; foliage application, 200 ppm",large
same,red clover withered (fraction of plants per pot),"red clover [8]; first treatment with 200 ppm, two pots",4/6 and 1/5
same,parasitic plant controlling activity,parasitic plant,not so high
"Cc1ccc(NC(=O)c2snnc2C)cc1Cl [TDN, tiadinil]",Average parasitism frequency per root,Orobanche minor [5]; 20 ppm,1.07 per root
same,S4 bud formation per root,Orobanche minor [5]; 20 ppm,0.08 per root
same,Average parasitism frequency per root,Orobanche minor [5]; 200 ppm,2.57 per root
same,S4 bud formation per root,Orobanche minor [5]; 200 ppm,0.21 per root
same,Average parasitism frequency per root,Orobanche minor [5]; 2000 ppm,2.01 per root
same,S4 bud formation per root,Orobanche minor [5]; 2000 ppm,0.15 per root
same,number of total parasitized cases of Orobanche minor,"Orobanche minor [5]; seed soaking, 20 ppm",reducing tendency
same,effective concentration,Orobanche minor [6]; soil irrigation,≥ 200 ppm
same,"parasitism, dose relation",Orobanche minor [6]; soil irrigation,dose-related lowering
same,Average parasitism frequency per root,Orobanche minor [6]; 2 ppm,2.36 per root
same,Average parasitism frequency per root,Orobanche minor [6]; 20 ppm,1.71 per root
same,Average parasitism frequency per root,Orobanche minor [6]; 200 ppm,0.53 per root
same,Average parasitism frequency per root,Orobanche minor [6]; 2000 ppm,0.03 per root
same,S4 bud formation per root,"Orobanche minor [6]; soil irrigation, 2 ppm",0.17 per root
same,S4 bud formation per root,"Orobanche minor [6]; soil irrigation, 20 ppm",0.10 per root
same,S4 bud formation per root,"Orobanche minor [6]; soil irrigation, 200 ppm",0.16 per root
same,Parasitism,"Orobanche minor [6]; soil irrigation, 2000 ppm",hardly found
same,S4 bud formation per root,"Orobanche minor [6]; soil irrigation, 2000 ppm",0.00 per root
same,"parasitism, dose relation",Orobanche minor [7]; foliage application,dose-related lowering
same,Average parasitism frequency per root,Orobanche minor [7]; 20 ppm,1.49 per root
same,Average parasitism frequency per root,Orobanche minor [7]; 200 ppm,1.02 per root
same,Average parasitism frequency per root,Orobanche minor [7]; 2000 ppm,0.24 per root
same,S4 bud formation per root,"Orobanche minor [7]; foliage application, 20 ppm",0.15 per root
same,S4 bud formation per root,"Orobanche minor [7]; foliage application, 200 ppm",0.06 per root
same,effect on parasitism,"Orobanche minor [7]; foliage application, 2000 ppm",high effect
same,S4 bud formation per root,"Orobanche minor [7]; foliage application, 2000 ppm",0.03 per root
same,S4 bud formation per root,Orobanche minor [1]; 20 ppm,0.10 per root
same,Average parasitism frequency per root,Orobanche minor [1]; 20 ppm,1.12 per root
same,S4 bud formation per root,Orobanche minor [1]; 200 ppm,0.12 per root
same,Average parasitism frequency per root,Orobanche minor [1]; 200 ppm,0.05 per root
same,S4 bud formation,Orobanche minor [1],decreasing tendency
same,total parasitism frequency of Orobanche minor,Orobanche minor [1],decreasing tendency
same,Average parasitism frequency per root,Orobanche minor [2]; 20 ppm,2.22 per root
same,Average parasitism frequency per root,Orobanche minor [2]; 200 ppm,1.55 per root
same,Average parasitism frequency per root,Orobanche minor [2]; 2000 ppm,0.22 per root
same,S4 bud formation per root,Orobanche minor [2]; 20 ppm,0.13 per root
same,S4 bud formation per root,Orobanche minor [2]; 200 ppm,0.11 per root
same,parasitism frequency,Orobanche minor [2],reducing tendency
same,S4 bud formation per root,Orobanche minor [2]; 2000 ppm,0.07 per root
same,S4 bud formation,Orobanche minor [2],reduced
same,Average parasitism frequency per root,Orobanche minor [3]; 20 ppm,2.25 per root
same,Average parasitism frequency per root,Orobanche minor [3]; 200 ppm,1.92 per root
same,Average parasitism frequency per root,Orobanche minor [3]; 2000 ppm,0.34 per root
same,S4 bud formation per root,Orobanche minor [3]; 20 ppm,0.49 per root
same,parasitism frequency decreasing tendency,Orobanche minor [3],unclear
same,S4 bud formation per root,Orobanche minor [3]; 200 ppm,0.35 per root
same,S4 bud formation,Orobanche minor [3],decreasing tendency
same,parasitism frequency,Orobanche minor [3]; 2000 ppm,decreasing tendency
same,S4 bud formation per root,Orobanche minor [3]; 2000 ppm,0.15 per root
same,phytotoxicity,red clover [4]; 200 ppm,weak
same,phytotoxicity,red clover [4]; 2000 ppm,strong
same,parasitic plant controlling activity,parasitic plant,high
same,phytotoxicity,crop plants,low
